The values that follow come from US6638921B1, “Pyridoxal-5-phosphate derivatives as HIV integrase inhibitors” (Pharmacor Inc., priority 2002, dated 2003).

Counter-ions that a name gives are not always drawn. Like-named read-outs stand apart in the source and are kept apart here.

A word on the IC50: it is the concentration that inhibits the measured activity by half. Broadly, the EC50 is the concentration giving half of the maximal effect.

One data set addresses HIV-1 integrase (Human immunodeficiency virus type 1 group M subtype B, UniProt P12497). The experiment in a line: HIV-1 integrase inhibition assay in vitro (radiolabeled duplex substrate, U5 end of HIV LTR). Type of data set: biochemical. As for the experimental part: For the purpose of Table 1, the HIV-1 integrase inhibition assay was carried out following a known procedure (Burke, Jr. T. R. et al., J. Med. Chem. 38, 4171-4178 (1995)). A suitable radiolabeled duplex substrate corresponding to the U5 end of the HIV LTR was used.

Data set [1] has as its system HIV-1 laboratory viral strain NL4.3. The experiment in a line: Anti-viral assay in vitro (MTT, infected MT-4 cells). Type of data set: cell-based. As to conditions: reduce virus replication in cell culture by 50%, six days. As for the experimental part: (§1) To evaluate the EC50 of our compounds, various drug concentrations are incubated with the infected cell for six days and then the metabolic activity of the cells is monitored by the MTT assay. (See A. J. Japour et al, Antimicrobial Agents and Chemotherapy, 37, 1095-1101, 1993 and R. Pauwels et al. Journal of Virological Methods, 20, 309-321, 1988).
(§2) We use the laboratory viral strain NL4.3 as wild type virus and the cell line used is MT-4 which is a T-cell line highly sensitive to HIV-1. We also use some WT clinical strains. To address the resistance issue we assay the inhibitors with NL4.3 mutants which are designed to be resistant to specific commercially available inhibitors. The following reagents were obtained through the AIDS Research and Reference Reagent Program, division of AIDS, NIAID, NIH: pNL4.3 from Dr. Malcolm Martin; MT-4 cell line from Dr. Douglas Richman. Wild type (WT) clinical strains were obtained from “Laboratoire de santé publique du Québec”.

The test system of another data set is MT-4 cell line. The experiment in a line: Cytotoxicity assay in vitro (MTT, virus omitted). In kind it is cell-based. As for the experimental part:
as §1, §2
The same MTT assay is used to evaluate the CCIC50 of our compounds except that the virus is omitted.

Setting [2] is: IC50, concentration of drug required to reduce the enzyme activity by 50%.
Setting [3] is: Human immunodeficiency virus 1, MT4, 144 h.

Regarding `Cc1nc(N=Nc2cccc(C(=O)O)c2C)c(COP(=O)(O)O)c(C=O)c1O` [Example 1, 6-(3-Carboxy-2-methylphenylazo)-pyridoxal-5-phosphate], the half-inhibitory concentration (IC50) on HIV-1 integrase (setting [2]) came out at 1.2 µM. The same compound yielded an EC50 in data set [1] (setting [3]) of 2 µM. The same compound had a CCIC50 in the data set on MT-4 cell line (human, 6 days) of more than 100 µM.

Compound `Cc1nc(N=Nc2cc(F)c(F)c(C(=O)O)c2F)c(COP(=O)(O)O)c(C=O)c1O` [Example 41, 6-(3-Carboxy-2,4,5-trifluorophenylazo)-pyridoxal-5-phosphate] showed a half-inhibitory concentration (IC50) on HIV-1 integrase (setting [2]) of 2 µM. In data set [1] (setting [3]), this compound came in with a concentration for a half-maximal effect (EC50) of 14 µM. In the data set on MT-4 cell line (human, 6 days), this compound came in with a CCIC50 of more than 100 µM.

On to `Cc1nc(N=Nc2ccc(S(=O)(=O)NC34CC5CC(CC(C5)C3)C4)cc2)c(COP(=O)(O)O)c(C=O)c1O` [Example 3, 6-[4-(N-(1-Adamantyl)sulfamoyl)phenylazo]-pyridoxal-5-phosphate Hydrochloride], for which, on HIV-1 integrase (setting [2]), it took 0.2 µM to reach half-maximal inhibition (IC50). A half-maximal effect in data set [1] (setting [3]) (EC50) was put at 19.8 µM. Moreover, in the data set with MT-4 cell line (human, 6 days), the CCIC50 was 12 µM.

The compound `Cc1nc(N=Nc2cccc(C(=O)Nc3cccc4c3CCCN4)c2)c(COP(=O)(O)O)c(C=O)c1O` [Example 37, 6-[3-(5-(1,2,3,4-Tetrahydroquinolyl)carbamoyl)phenylazo]-pyridoxal-5-phosphate] showed an IC50 on HIV-1 integrase (setting [2]) of 3.3 µM. For the same compound, in data set [1] (setting [3]), the EC50 is 26 µM. Besides, the CCIC50 with MT-4 cell line (human, 6 days) stood at 84 µM.

For the compound `Cc1nc(N=Nc2ccc(S(=O)(=O)Nc3ncccn3)cc2)c(COP(=O)(O)O)c(C=O)c1O` [Example 25, 6-[4-(2-Pyrimidylsulfamoyl)phenylazo]-pyridoxal-5-phosphate], half-maximal inhibition against HIV-1 integrase (setting [2]) (IC50) was put at 0.3 µM. In data set [1] (setting [3]), this compound yielded an EC50 of 4.3 µM. This compound yielded a CCIC50 with MT-4 cell line (human, 6 days) of more than 100 µM.

`Cc1nc(N=Nc2cccc(C(=O)NCC(C)C)c2)c(COP(=O)(O)O)c(C=O)c1O` [Example 13, 6-[3-(Isobutylcarbamoyl)phenylazo]-pyridoxal-5-phosphate] registered an IC50 against HIV-1 integrase (setting [2]) of 1.3 µM. For the same compound, in data set [1] (setting [3]), the EC50 was 50 µM. This compound had a CCIC50 with MT-4 cell line (human, 6 days) of 90 µM.

`Cc1nc(N=Nc2cccc(C(=O)Nc3cccc4cnccc34)c2)c(COP(=O)(O)O)c(C=O)c1O` [Example 31, 6-[3-(5-Isoquinolylcarbamoyl)phenylazo]-pyridoxal-5-phosphate] yielded a concentration for half-maximal inhibition (IC50) at HIV-1 integrase (setting [2]) of 3.25 µM. In data set [1] (setting [3]), this compound yielded an EC50 of 15 µM. This compound gave a CCIC50 in the data set on MT-4 cell line (human, 6 days) of more than 100 µM.

With `Cc1nc(N=Nc2ccc(S(N)(=O)=O)cc2)c(COP(=O)(O)O)c(C=O)c1O` [Example 2, 6-(4-Sulfamoylphenylazo)-pyridoxal-5-phosphate], on HIV-1 integrase (setting [2]), the midpoint of inhibition, the IC50, lay at 0.25 µM. Moreover, the EC50 in data set [1] (setting [3]) is 5 µM. In addition, the CCIC50 with MT-4 cell line (human, 6 days) is more than 100 µM.

On HIV-1 integrase (setting [2]), `Cc1nc(N=Nc2cccc(C(=O)O)c2Cl)c(COP(=O)(O)O)c(C=O)c1O` [Example 39, 6-(3-Carboxy-2-chlorophenylazo)-pyridoxal-5-phosphate] returned a 50% inhibitory concentration (IC50) of 2.6 µM. The compound further displayed a concentration for a half-maximal effect (EC50) in data set [1] (setting [3]) of 1.8 µM. For the same compound, in the data set with MT-4 cell line (human, 6 days), the CCIC50 was more than 100 µM.

As for “6-[4-(N-(2-E-Caprolactamyl)-N-isobutylsulfamoyl)phenylazo]-pyridoxal-5-phosphate Hydrochloride [Example 5]”, the IC50 at HIV-1 integrase (concentration of drug required to reduce the enzyme activity by 50%, read-out: IC50) came to 0.6 µM. The 50% effective concentration (EC50) in data set [1] (read-out: EC50) amounted to 17 µM. Further, the CCIC50 in the data set on MT-4 cell line is more than 100 µM.

As for `Cc1nc(N=Nc2cccc(S(=O)(=O)N3CCOCC3)c2)c(COP(=O)(O)O)c(C=O)c1O` [Example 27, 6-[3-(Morpholinesulfamoyl)phenylazo]-pyridoxal-5-phosphate], 1.1 µM corresponded to half-maximal inhibition against HIV-1 integrase (setting [2]) (IC50). The compound further came in with an EC50 in data set [1] (setting [3]) of 27.5 µM. Moreover, the CCIC50 in the data set on MT-4 cell line (human, 6 days) was more than 100 µM.

The compound `Cc1nc(N=Nc2cc(C(=O)O)cc(C(=O)O)c2)c(COP(=O)(O)O)c(C=O)c1O` [Example 49, 6-(3,5-Dicarboxyphenylazo)-pyridoxal-5-phosphate Methanesulfonic Acid Salt] returned an IC50 on HIV-1 integrase (setting [2]) of 0.5 µM. Also, in data set [1], the concentration giving a half-maximal response (EC50) amounted to 0.275 µM. The compound further displayed a CCIC50 in the data set on MT-4 cell line (human, 6 days) of 12 µM.

The compound `Cc1nc(N=Nc2ccccc2C(=O)O)c(COP(=O)(O)O)c(C=O)c1O` [Example 48, 6-(2-Carboxyphenylazo)-pyridoxal-5-phosphate] had an IC50 against HIV-1 integrase (setting [2]) of 0.345 µM. Moreover, the EC50 in data set [1] (setting [3]) is more than 20 µM. For the same compound, the CCIC50 in the data set with MT-4 cell line (human, 6 days) is more than 100 µM.

At HIV-1 integrase (setting [2]), `Cc1nc(N=Nc2cccc(C(=O)Nc3cccnc3)c2)c(COP(=O)(O)O)c(C=O)c1O` [Example 28, 6-[3-(3-Pyridylcarbamoyl)phenylazo]-pyridoxal-5-phosphate] had a half-maximal inhibitory concentration (IC50) of 3.25 µM. The compound further had a concentration giving a half-maximal response (EC50) in data set [1] (setting [3]) of 6.25 µM. Further, the CCIC50 in the data set with MT-4 cell line (human, 6 days) is 50 µM.

Turning to `Cc1nc(N=Nc2cc(C(=O)O)cc(C(=O)O)c2)c(COP(=O)(O)O)c(C=NO)c1O` [Example 52, 6-(3,5-Dicarboxyphenylazo)-pyridoxal-5-phosphate Oxime], the half-maximal inhibitory concentration (IC50) against HIV-1 integrase (setting [2]) is 8.75 µM. Besides, the 50% effective concentration (EC50) in data set [1] (setting [3]) turned out to be 15 µM. Besides, in the data set on MT-4 cell line (human, 6 days), the CCIC50 is 60 µM.

As to `Cc1nc(N=Nc2ccc(S(=O)(=O)Nc3nccs3)cc2)c(COP(=O)(O)O)c(C=O)c1O` [Example 24, 6-[4-(2-Thiazolylsulfamoyl)phenylazo]-pyridoxal-5-phosphate], the IC50 at HIV-1 integrase (setting [2]) was found to be 0.365 µM. In addition, the EC50 in data set [1] (setting [3]) amounted to 23 µM. This compound also came in with a CCIC50 with MT-4 cell line (human, 6 days) of more than 100 µM.

At HIV-1 integrase (setting [2]), `Cc1nc(N=Nc2cccc(C(=O)Nc3ccncc3)c2)c(COP(=O)(O)O)c(C=O)c1O` [Example 30, 6-[3-(4-Pyridylcarbamoyl)phenylazo]-pyridoxal-5-phosphate] registered a concentration for half-maximal inhibition (IC50) of 3.15 µM. For the same compound, the concentration giving a half-maximal response (EC50) in data set [1] (setting [3]) worked out at 20 µM. Also, in the data set on MT-4 cell line (human, 6 days), the CCIC50 was 87 µM.

Take `Cc1nc(N=Nc2cccc(C(=O)O)c2C(=O)O)c(COP(=O)(O)O)c(C=O)c1O` [Example 47, 6-(2,3-Dicarboxyphenylazo)-pyridoxal-5-phosphate]: at HIV-1 integrase (setting [2]), half-maximal inhibition (IC50) was put at 0.165 µM. In data set [1] (setting [3]), a half-maximal response (EC50) required 10 µM. This compound had a CCIC50 with MT-4 cell line (human, 6 days) of 17 µM.

Regarding `CCOC(OCC)c1c(O)c(C)nc(N=Nc2cc(C(=O)O)cc(C(=O)O)c2)c1COP(=O)(O)O` [Example 51, 6-(3,5-Dicarboxyphenylazo)-pyridoxal-5-phosphate Diethylacetal], half-maximal inhibition on HIV-1 integrase (setting [2]) (IC50) required 0.125 µM. This compound returned a concentration for a half-maximal effect (EC50) in data set [1] (setting [3]) of 0.35 µM. Further, in the data set with MT-4 cell line (human, 6 days), the CCIC50 was more than 100 µM.
